# In patent US8173634B2, “Polymorphic form of 1-(4-{1-[(E)-4-cyclohexyl-3-trifluoromethyl-benzyloxyimino]-ethyl}-2-ethyl-benzyl)-azetidine-3-carboxylic” (Novartis AG, priority 2008, dated 2012):
# What was measured:
# [1] = Intrinsic dissolution rate (Vankel punch and die, fiber optics UV at 260 nm, 200 rpm, 37°C); assay type: physicochemical; conditions: for Intrinsic dissolution rate: 37°C, 200 rpm
# Description: (§1) The solubility and dissolution rate of the Crystalline form A of the free base of compound I prepared as described in Example 1 were tested in various solvents.
# (§2) For solubility measurements, excess Form A of the free base of compound I was added to the test solvents and equilibrated for 8 days at 25° C.±0.5° C. and 4 days at 37±0.5° C. Slurries were filtered and the filtrate saved for HPLC solubility determinations. Dissolution rate measurements were carried out in 0.5 cm^2 Vankel punch and die assemblies and a pellet pressure of 2000 pounds. The dissolution was measured using fiber optics dissolution system (C technologies Inc.) and a Cary UV/VIS spectrophotometer, with a stirring rate of 200 rpm. The solution medium was held at 37±0.5° C. and the concentration measurements were made at 260 nm.
# [2] = Solubility of Crystalline Form A in test solvents (excess solid equilibrated, filtrate by HPLC); assay type: physicochemical; conditions: for pH of final solution: 25°C solubility test; for solubility at 8 days: 25°C, equilibrated 8 days; for solubility at 4 days: 37°C, equilibrated 4 days
# Description: as §1, §2
structure (smiles),measurement,setting,value
"CCc1cc(/C(C)=N/OCc2ccc(C3CCCCC3)c(C(F)(F)F)c2)ccc1CN1CC(C(=O)O)C1 [Compound I, 1-(4-{1-[(E)-4-cyclohexyl-3-trifluoromethyl-benzyloxyimino]-ethyl}-2-ethyl-benzyl)-azetidine-3-carboxylic acid]",Intrinsic dissolution rate,[1]; 0.01N HCl + SDS (0.1%),0.0245 mg min^−1 cm^−2
same,Intrinsic dissolution rate,[1]; 0.1N HCl + SDS (0.1%),0.0368 mg min^−1 cm^−2
same,Intrinsic dissolution rate,[1]; Water + SDS (0.1%),0.0098 mg min^−1 cm^−2
same,Dissolution (overall assessment),[1]; summary of Table 4,relatively quick dissolution
same,pH of final solution,[2]; 0.01N HCL,2.24
same,pH of final solution,[2]; 0.01N HCl + SDS (0.1%),2.33
same,pH of final solution,[2]; 0.1N HCl + SDS (0.1%),1.48
same,pH of final solution,[2]; 0.1N HCl,1.49
same,pH of final solution,"[2]; Phosphate buffer, pH 6.8",7.02
same,pH of final solution,[2]; Water + SDS (0.1%),7.02
same,pH of final solution,[2]; Water,6.28
same,solubility at 8 days,"[2]; aqueous buffer, thermodynamic from solid, Phosphate buffer, pH 6.8",0.47 µg/mL
same,solubility at 8 days,"[2]; aqueous with cosolvent or surfactant or cyclodextrin, thermodynamic from solid, Acetonitrile/water (1:1 v/v)",> 40000 µg/mL
same,solubility at 8 days,"[2]; aqueous with cosolvent or surfactant or cyclodextrin, thermodynamic from solid, Ethanol/water (1:1 v/v)",13900 µg/mL
same,solubility at 8 days,"[2]; organic solvent or mixture, thermodynamic from solid, Ethanol",47600 µg/mL
same,solubility at 8 days,"[2]; organic solvent or mixture, thermodynamic from solid, acetonitrile",610 µg/mL
same,solubility at 8 days,"[2]; pH 1.48, aqueous with cosolvent or surfactant or cyclodextrin, thermodynamic from solid, 0.1N HCl + SDS (0.1%)",22 µg/mL
same,solubility at 8 days,"[2]; pH 1.49, simulated gastric fluid, thermodynamic from solid, 0.1N HCl",1.5 µg/mL
same,solubility at 8 days,"[2]; pH 2.24, simulated gastric fluid, thermodynamic from solid, 0.01N HCL",0.6 µg/mL
same,solubility at 8 days,"[2]; pH 2.33, aqueous with cosolvent or surfactant or cyclodextrin, thermodynamic from solid, 0.01N HCl + SDS (0.1%)",994 µg/mL
same,solubility at 8 days,"[2]; pH 6.28, thermodynamic from solid, Water",33 µg/mL
same,solubility at 8 days,"[2]; pH 7.02, aqueous with cosolvent or surfactant or cyclodextrin, thermodynamic from solid, Water + SDS (0.1%)",1190 µg/mL
same,solubility at 4 days,"[2]; simulated gastric fluid, thermodynamic from solid, 0.01N HCl",< 0.5 µg/mL
same,solubility at 4 days,"[2]; simulated gastric fluid, thermodynamic from solid, 0.1N HCl",1.9 µg/mL
same,Solubility (overall assessment),[2]; summary of Tables 2-3,good solubility
same,solubility at 4 days,"[2]; thermodynamic from solid, water",106 µg/mL
